Measured values reported in PMC7307930, “Stereoselective Activity of 1-Propargyl-4-styrylpiperidine-like Analogues That Can Discriminate between Monoamine Oxidase Isoforms A and B” (Journal of Medicinal Chemistry, 2020).

tested on: Swiss mice; assay: Elevated plus maze test; type: in vivo, mouse; conditions: acute ip, 1 mg/kg

Question: Which “Open arm entries (%)” value does the source give for CN1C(=O)CN=C(c2ccccc2)c2cc(Cl)ccc21 [Diazepam, reference compound] here?
Answer: 29.9 ±3.2%

Question: And the “Time in centre (%)” value?
Answer: 37.6 ±5.8%

Question: And the “Time in open arms (%)” value?
Answer: 22.3 ±3.1%

Question: What about the Total arm entries of the same compound?
Answer: 36.0 ±3.2

biological target: T1, hMAO-A (Homo sapiens, UniProt P21397); assay: hMAO-A inhibition, HRP–Amplex Red coupled fluorimetric assay; type: biochemical; conditions: supplement csv; RA at 100 micromolar
T1 construct: purchased Sigma Aldrich; host or cells: baculovirus-infected insect cells (BTI-TN-5B1-4)
T1 sequence (P21397 1-527): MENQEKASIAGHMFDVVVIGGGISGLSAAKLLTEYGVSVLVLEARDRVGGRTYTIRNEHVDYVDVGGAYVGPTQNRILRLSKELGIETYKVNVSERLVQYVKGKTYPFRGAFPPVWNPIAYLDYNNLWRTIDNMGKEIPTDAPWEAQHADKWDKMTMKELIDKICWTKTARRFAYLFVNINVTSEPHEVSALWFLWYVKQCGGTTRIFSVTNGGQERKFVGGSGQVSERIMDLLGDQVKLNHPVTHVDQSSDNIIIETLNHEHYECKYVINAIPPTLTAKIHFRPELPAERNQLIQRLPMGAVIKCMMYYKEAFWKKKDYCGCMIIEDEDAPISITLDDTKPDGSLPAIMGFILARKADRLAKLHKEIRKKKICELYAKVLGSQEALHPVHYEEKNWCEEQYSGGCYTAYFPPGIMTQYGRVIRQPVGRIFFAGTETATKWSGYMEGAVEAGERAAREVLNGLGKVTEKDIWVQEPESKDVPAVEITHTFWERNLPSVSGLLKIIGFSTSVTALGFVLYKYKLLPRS

Question: With C#CCN1CCCC(/C=C/c2ccc(F)cc2)C1 (racemic) [Compound 19, (±)-(E)-3-(4-Fluorostyryl)-1-(prop-2-yn-1-yl)piperidine] as the compound, how does the “IC50(MAO-A) class” value read?
Answer: na (na-not_active(RA_at_100micromolar>50%))

Question: Which “IC50(MAO-A) class” value does the source give for C#CCN1CCCC(/C=C/c2cc(F)c(F)cc2F)C1 (racemic) [Compound 20, (±)-(E)-1-(Prop-2-yn-1-yl)-3-(2,4,5-trifluorostyryl)piperidine] here?
Answer: na (na-not_active(RA_at_100micromolar>50%))

Question: With C#CCN1CCCC(CCc2ccc(F)cc2)C1 (racemic) [Compound 23, (±)-3-(4-Fluorophenethyl)-1-(prop-2-yn-1-yl)piperidine] as the compound, how does the “IC50(MAO-A) class” value read?
Answer: na (na-not_active(RA_at_100micromolar>50%))

Question: For C#CCN1CCCC(CCc2cc(F)c(F)cc2F)C1 (racemic) [Compound 24, (±)-3-(2,4,5-Trifluorophenethyl)-1-(prop-2-yn-1-yl)piperidine], which “IC50(MAO-A) class” value is on record?
Answer: na (na-not_active(RA_at_100micromolar>50%))

Question: With C#CCN1CCC(CCc2ccc(F)cc2)CC1 [Compound 25, 4-(4-Fluorophenethyl)-1-(prop-2-yn-1-yl)piperidine] as the compound, how does the “IC50(MAO-A) class” value read?
Answer: na (na-not_active(RA_at_100micromolar>50%))

Question: With C#CCN1CCC(CCc2cc(F)c(F)cc2F)CC1 [Compound 26, 1-(Prop-2-yn-1-yl)-4-(2,4,5-trifluorophenethyl)piperidine] as the compound, how does the “IC50(MAO-A) class” value read?
Answer: na (na-not_active(RA_at_100micromolar>50%))

Question: With C#CCN1CCC(/C=C\c2ccc(C)cc2)CC1 [Compound 75, (Z)-4-(4-Methylstyryl)-1-(prop-2-yn-1-yl)piperidine] as the compound, how does the “IC50(MAO-A) class” value read?
Answer: na (na-not_active(RA_at_100micromolar>50%))

Question: For C#CCN1CCC(/C=C/c2ccc(C)cc2)CC1 [Compound 76, (E)-4-(4-Methylstyryl)-1-(prop-2-yn-1-yl)piperidine], which “IC50(MAO-A) class” value is on record?
Answer: na (na-not_active(RA_at_100micromolar>50%))

Question: Which “IC50(MAO-A) class” value does the source give for C#CCN1CCC(/C=C/c2ccc(Br)cc2)CC1 [Compound 81, (E)-4-(4-Bromostyryl)-1-(prop-2-yn-1-yl)piperidine] here?
Answer: na (na-not_active(RA_at_100micromolar>50%))

Question: Which “IC50(MAO-A) class” value does the source give for C#CCN1CCC(/C=C/c2ccc(OC)cc2)CC1 [Compound 82, (E)-4-(4-Methoxystyryl)-1-(prop-2-yn-1-yl)piperidine] here?
Answer: na (na-not_active(RA_at_100micromolar>50%))

Question: Which “IC50(MAO-A) class” value does the source give for C#CCN1CCC(/C=C\c2ccc(C(F)(F)F)cc2)CC1 [Compound 83, (Z)-1-(Prop-2-yn-1-yl)-4-(4-(trifluoromethyl)styryl)piperidine] here?
Answer: na (na-not_active(RA_at_100micromolar>50%))

Question: Which “IC50(MAO-A) class” value does the source give for C#CCN1CCC(/C=C\c2ccc(S(C)(=O)=O)cc2)CC1 [Compound 89, (Z)-4-(4-(Methylsulfonyl)styryl)-1-(prop-2-yn-1-yl)piperidine] here?
Answer: na (na-not_active(RA_at_100micromolar>50%))

Question: With C#CCN1CCC(/C=C/c2ccc(S(C)(=O)=O)cc2)CC1 [Compound 90, (E)-4-(4-(Methylsulfonyl)styryl)-1-(prop-2-yn-1-yl)piperidine] as the compound, how does the “IC50(MAO-A) class” value read?
Answer: na (na-not_active(RA_at_100micromolar>50%))

Question: For C#CCN1CCC(CCc2ccc(C)cc2)CC1 [Compound 96, 4-(4-Methylphenethyl)-1-(prop-2-yn-1-yl)piperidine], which “IC50(MAO-A) class” value is on record?
Answer: na (na-not_active(RA_at_100micromolar>50%))

Question: Which “IC50(MAO-A) class” value does the source give for C#CCN1CCC(CCc2ccc(Cl)cc2)CC1 [Compound 98, 4-(4-Chlorophenethyl)-1-(prop-2-yn-1-yl)piperidine] here?
Answer: na (na-not_active(RA_at_100micromolar>50%))

Question: With C#CCN1CCC(CCc2ccc(OC)cc2)CC1 [Compound 99, 4-(4-Methoxyphenethyl)-1-(prop-2-yn-1-yl)piperidine] as the compound, how does the “IC50(MAO-A) class” value read?
Answer: na (na-not_active(RA_at_100micromolar>50%))

Question: Which “IC50(MAO-A) class” value does the source give for C#CCN1CCC(CCc2cccc(C(F)(F)F)c2)CC1 [Compound 101, 1-(Prop-2-yn-1-yl)-4-(3-(trifluoromethyl)phenethyl)piperidine] here?
Answer: na (na-not_active(RA_at_100micromolar>50%))

Question: Which “IC50(MAO-A) class” value does the source give for C#CCN1CCC(/C=C\c2ccc(C(N)=O)cc2)CC1 [Compound 104, (Z)-4-(2-(1-(Prop-2-yn-1-yl)piperidin-4-yl)vinyl)benzamide] here?
Answer: na (na-not_active(RA_at_100micromolar>50%))

Question: Which “IC50(MAO-A) class” value does the source give for C#CCN1CCC(/C=C/c2ccc(C(N)=O)cc2)CC1 [Compound 105, (E)-4-(2-(1-(Prop-2-yn-1-yl)piperidin-4-yl)vinyl)benzamide] here?
Answer: na (na-not_active(RA_at_100micromolar>50%))

Question: Which “IC50(MAO-A) class” value does the source give for C#CCN1CCC(CCc2ccc(C(N)=O)cc2)CC1 [Compound 106, 4-(2-(1-(Prop-2-yn-1-yl)piperidin-4-yl)ethyl)benzamide] here?
Answer: na (na-not_active(RA_at_100micromolar>50%))

Question: Which “IC50(MAO-A) class” value does the source give for C#CCN1CCC(CCc2ccc(O)cc2)CC1 [Compound 107, 4-(2-(1-(Prop-2-yn-1-yl)piperidin-4-yl)ethyl)phenol] here?
Answer: na (na-not_active(RA_at_100micromolar>50%))

biological target: T2, 5-HT1A receptor (Rattus norvegicus, UniProt P19327); assay: [3H]-8-OH-DPAT radioligand binding assay, rat cortex membranes; conditions: [3H]-8-OH-DPAT binding, means ±SEM
T2 construct: from tissue; host or cells: rat (male Wistar) brain cortex membranes
T2 sequence (P19327 1-422): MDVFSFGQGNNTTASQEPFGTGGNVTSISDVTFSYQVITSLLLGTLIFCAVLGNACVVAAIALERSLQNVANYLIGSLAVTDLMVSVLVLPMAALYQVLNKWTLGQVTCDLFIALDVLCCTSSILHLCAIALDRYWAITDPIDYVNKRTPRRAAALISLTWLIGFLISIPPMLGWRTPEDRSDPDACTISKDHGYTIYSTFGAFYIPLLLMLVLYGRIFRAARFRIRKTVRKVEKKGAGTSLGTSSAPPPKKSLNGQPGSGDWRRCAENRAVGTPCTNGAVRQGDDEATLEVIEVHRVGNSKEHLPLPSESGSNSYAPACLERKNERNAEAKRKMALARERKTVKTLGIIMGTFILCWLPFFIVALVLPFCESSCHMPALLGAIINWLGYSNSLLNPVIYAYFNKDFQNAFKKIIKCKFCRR

Question: With C#CCN1CCC(CCc2ccc(C#N)cc2)CC1 [Compound 102, 4-(2-(1-(Prop-2-yn-1-yl)piperidin-4-yl)ethyl)benzonitrile] as the compound, how does the Ki read?
Answer: 8.6 ± 1.7 µM

same assay, conditions: read-out: Inhibition at 300 µM

Question: Which inhibition at 300 µM does the source give for C#CCN1CCC(CCc2ccc(C#N)cc2)CC1 [Compound 102, 4-(2-(1-(Prop-2-yn-1-yl)piperidin-4-yl)ethyl)benzonitrile] here?
Answer: 78%

tested on: SH-SY5Y cells; assay: MTS cytotoxicity assay; conditions: 24 h, 5 μM and 10 μM

Question: With C#CCN1CCC(/C=C/c2ccc(F)cc2)CC1 [Compound 1, (E)-4-(4-Fluorostyryl)-1-(prop-2-yn-1-yl)piperidine] as the compound, how does the cytotoxic effects read?
Answer: no significant cytotoxic effects

Question: Which cytotoxic effects does the source give for C#CCN1CCC(CCc2ccc(C(C)C)cc2)CC1 [Compound 97, 4-(4-Isopropylphenethyl)-1-(prop-2-yn-1-yl)piperidine] here?
Answer: no significant cytotoxic effects

Question: Which cytotoxic effects does the source give for C#CCN1CCC(CCc2ccc(C#N)cc2)CC1 [Compound 102, 4-(2-(1-(Prop-2-yn-1-yl)piperidin-4-yl)ethyl)benzonitrile] here?
Answer: no significant cytotoxic effects

tested on: not listed separately; assay: Thermodynamic solubility in PBS; type: physicochemical; conditions: PBS (pH 7.4), 37 °C, 24 h, hydrochloride salts

Question: With C#CCN1CCC(CCc2ccc(C(C)C)cc2)CC1 [Compound 97, 4-(4-Isopropylphenethyl)-1-(prop-2-yn-1-yl)piperidine] as the compound, how does the thermodynamic solubility read?
Answer: ≥ 14.5 g/250 mL

tested on: Swiss mice; assay: Tail suspension test; type: in vivo, mouse; conditions: ip 30 min before; 6, 67 at 3 and 10 mg/kg, 69 at 1, 3, 10, 30 mg/kg, imipramine 30 mg/kg
Protocol: The antidepressant-like activity was screened with the widely used tail suspension test. At 30 min before the behavioral assays, the mice were treated with 6, 67, and 69 at 3 mg/kg and 10 mg/kg ip, with 69 also at 1 mg/kg and 30 mg/kg ip, or were injected with 0.9% saline as control. Imipramine (30 mg/kg ip) was used as the reference drug.
(A) Effects of acute ip treatment with 6 (3, 10 mg/kg, n = 13, 9), 67 (3, 10 mg/kg, n = 6, 10), and 69 (1, 3, 10, 30 mg/kg, n = 8, 7, 8, 6) and imipramine (30 mg/kg, n = 8) in the tail suspension test. […] (B) Effects of acute ip treatment with 6 (3, 10 mg/kg, n = 8, 8), 67 (1, 3, 6 mg/kg; n = 5, 5, 5), and 69 (1, 3, 6 mg/kg, n = 10, 5, 5) on locomotor activity of the mice. […] (C) Effects of 10-day chronic ip treatment with 69 (0.3 mg/kg, daily; n = 10) in the tail suspension test. Data are mean values ± SEM of the immobility time, compared to control mice (n = 8): ∗∗, p < 0.01 (unpaired t-test). […]
quality control sample every seven test samples. The absolute matrix effect was checked by comparing the analyte responses in the standard solutions to the samples spiked in the tissue incubation medium from the control experiment without the analyte, and a deviation of less than ±20% was deemed acceptable.
4.2.10In vitro radioligand binding assay
Rats were humanely killed by decapitation and their brains were removed, washed and rapidly dissected on ice. Homogenisation was performed using a homogeniser (PRO Scientific Inc) at 30,000 rpm for 1 min. For 5-HT1A binding assays, the cortex tissues were homogenised in 30 volumes/weight ice-cold 50 mM Tris–HCl buffer (pH 7.4), and the homogenate was centrifuged at 40,000× g for 15 min at 0 °C to 4 °C. The resulting pellets were resuspended in 30 volumes/weight of the same buffer, and incubated at 37 °C for 20 min. The centrifugation step was repeated twice under the same conditions as described above, and the final pellets were resuspended in 30 volumes/weight 50 mM Tris–HCl buffer (pH 7.4), and stored at –80 […]
For the [3H]-8-OH-DPAT binding assay (the 5-HT1A receptor binding assay), the membranes were thawed and resuspended in 50 mM Tris–HCl (pH 7.4) with 1 mM MnCl2, to a final protein concentration of 0.5 mg/mL. The incubation was carried out at 25 °C for 1 h in a final volume of 1 mL membrane suspension in the presence of the sample assayed and with 0.2 nM [3H]-8-OH-DPAT (170.2 Ci/mmol). Serotonin was used as the positive control. Non-specific binding was determined in parallel incubations in the presence of serotonin (10 μM).
4.2.11 Tail suspension test
The tail suspension test was carried out according to the methodology proposed by Steru and co-workers.22 The mice were individually suspended by the tail from a metal hook (distance

Question: For CN(C)CCCN1c2ccccc2CCc2ccccc21 [imipramine, reference compound], which “immobility time, acute treatment” value is on record?
Answer: significantly reduced
